# Measurements taken from the SangsterLogP compilation.
# Where a SMILES comes first, the peptide text is derived from it.
# Experiment: method code SF-HPLC, from DOI: 10.1002/qsar.19900090302
# Conditions: pH 7.0
row,logD,SMILES
1,-0.54,CC(=O)N[C@@H](C)C(=O)N[C@@H](CC(C)C)C(N)=O (Ac-Ala-Leu-NH2)
2,-0.45,CC[C@H](C)[C@H](NC(=O)[C@@H](NC(C)=O)C(C)C)C(=O)NCC(N)=O (Ac-Val-Ile-Gly-NH2)
3,-0.78,CC(=O)NCC(=O)N[C@@H](CC(C)C)C(N)=O
4,-1.82,CC(=O)NC(C(=O)NC(CCC(N)=O)C(N)=O)C(C)C (stereo not drawn) (Ac-Val-Gln-NH2; configuration not given here)
5,-1.23,CC(=O)NCC(=O)N[C@@H](CC(C)C)C(=O)NCC(N)=O (Ac-Gly-Leu-Gly-NH2)
6,-1.43,CC[C@H](C)[C@H](NC(=O)[C@H](CC(N)=O)NC(C)=O)C(N)=O (Ac-Asn-Ile-NH2)
7,-1.53,CC(=O)N[C@@H](CO)C(=O)N[C@H](C(N)=O)C(C)C (Ac-Ser-Val-NH2)
8,-1.4,CC(=O)N[C@H](C(=O)N[C@@H](C)C(=O)N[C@@H](C)C(N)=O)C(C)C
9,0.26,CC(=O)N[C@@H](CC(C)C)C(=O)N[C@H](C(N)=O)C(C)C (Ac-Leu-Val-NH2)
10,-1.14,CC(=O)N[C@H](C(=O)N[C@@H](C)C(N)=O)C(C)C (Ac-Val-Ala-NH2)
11,-1.3,CC(=O)N[C@@H](CC(C)C)C(=O)N[C@@H](CC(N)=O)C(N)=O
12,-1.25,CC(=O)N[C@H](C(=O)N[C@H](C(N)=O)C(C)C)[C@@H](C)O (Ac-Thr-Val-NH2)
13,-1.56,CC(=O)NCC(=O)N[C@@H](C)C(=O)N[C@H](C(N)=O)C(C)C (Ac-Gly-Ala-Val-NH2)
14,0.16,CC[C@H](C)[C@H](NC(C)=O)C(=O)N[C@H](C(N)=O)C(C)C (Ac-Ile-Val-NH2)
15,-0.32,CC(=O)N[C@H](C(=O)N[C@H](C(N)=O)C(C)C)C(C)C (Ac-Val-Val-NH2)
16,-1.33,CC(=O)NCC(=O)N[C@H](C(N)=O)C(C)C (Ac-Gly-Val-NH2)
17,-0.86,CC[C@H](C)[C@H](NC(=O)[C@@H](NC(C)=O)[C@@H](C)O)C(N)=O (Ac-Thr-Ile-NH2)
18,-1.13,CC(=O)N[C@@H](C)C(=O)N[C@H](C(N)=O)C(C)C (Ac-Ala-Val-NH2)
19,-0.14,CC(=O)N[C@@H](C)C(=O)N[C@@H](CC(C)C)C(=O)N[C@H](C(N)=O)C(C)C (Ac-Ala-Leu-Val-NH2)
20,0.68,CC[C@H](C)[C@H](NC(=O)[C@H](CC(C)C)NC(C)=O)C(N)=O (Ac-Leu-Ile-NH2)
21,-1.85,CC(=O)NC(CC(N)=O)C(=O)NC(C(N)=O)C(C)C (stereo not drawn) (Ac-Asn-Val-NH2; configuration not given here)
22,0.24,CC(=O)N[C@@H](CC(C)C)C(=O)N[C@H](C(=O)N[C@@H](CC(C)C)C(N)=O)[C@@H](C)O (Ac-Leu-Thr-Leu-NH2)
23,0.49,CC[C@H](C)[C@H](NC(=O)[C@@H](NC(=O)[C@@H](NC(C)=O)C(C)C)C(C)C)C(N)=O (Ac-Val-Val-Ile-NH2)
24,-1.32,CC(=O)NC(CCC(N)=O)C(=O)NC(CC(C)C)C(N)=O (stereo not drawn) (Ac-Gln-Leu-NH2; configuration not given here)
25,-0.2,CC[C@H](C)[C@H](NC(=O)[C@@H](NC(=O)[C@H](C)NC(C)=O)C(C)C)C(N)=O
26,-0.67,CC(=O)N[C@H](C(=O)N[C@@H](C)C(=O)N[C@H](C(N)=O)C(C)C)C(C)C (Ac-Val-Ala-Val-NH2)
27,-1.41,CC[C@H](C)[C@H](NC(C)=O)C(=O)N[C@@H](CC(N)=O)C(N)=O (Ac-Ile-Asn-NH2)
28,-1.85,CC(=O)NC(CCC(N)=O)C(=O)NC(C(N)=O)C(C)C (stereo not drawn) (Ac-Gln-Val-NH2; configuration not given here)

# Experiment: method code SF-AS, from DOI: 10.1002/qsar.19900090302
# Conditions: pH 7.0
row,logD,SMILES
1,0.99,CC(=O)N[C@@H](Cc1c[nH]c2ccccc12)C(=O)NCC(=O)N[C@@H](Cc1ccccc1)C(N)=O
2,-1.14,CC(=O)N[C@@H](CCC(N)=O)C(=O)N[C@@H](Cc1ccccc1)C(N)=O (Ac-Gln-Phe-NH2)
3,0.26,CC(=O)N[C@@H](C)C(=O)N[C@@H](Cc1ccc(O)cc1)C(=O)N[C@@H](Cc1ccccc1)C(N)=O (Ac-Ala-Tyr-Phe-NH2)
4,0.52,CC[C@H](C)[C@H](NC(C)=O)C(=O)N[C@@H](Cc1ccccc1)C(=O)N[C@@H](C)C(N)=O (Ac-Ile-Phe-Ala-NH2)
5,-0.5,CC(=O)N[C@@H](Cc1ccccc1)C(=O)NCC(N)=O (Ac-Phe-Gly-NH2)
6,0.54,CC(=O)N[C@@H](Cc1ccc(O)cc1)C(=O)N[C@@H](Cc1ccccc1)C(N)=O (Ac-Tyr-Phe-NH2)
7,-0.56,CC(=O)NCC(=O)N[C@@H](Cc1ccccc1)C(N)=O (Ac-Gly-Phe-NH2)
8,-1.03,CC(=O)N[C@@H](Cc1ccccc1)C(=O)N[C@@H](CCC(N)=O)C(N)=O
9,0.06,CC(=O)N[C@H](C(=O)N[C@@H](Cc1ccccc1)C(=O)N[C@@H](C)C(N)=O)C(C)C (Ac-Val-Phe-Ala-NH2)
10,-0.79,CC(=O)N[C@@H](CO)C(=O)N[C@@H](Cc1ccccc1)C(N)=O
11,0.23,CC(=O)N[C@@H](CC(C)C)C(=O)N[C@@H](CO)C(=O)N[C@@H](Cc1ccccc1)C(N)=O (Ac-Leu-Ser-Phe-NH2)
12,0.6,CC(=O)N[C@@H](Cc1ccccc1)C(=O)NCC(=O)N[C@@H](CC(C)C)C(N)=O
13,0.34,CC[C@H](C)[C@H](NC(=O)[C@H](Cc1ccccc1)NC(C)=O)C(=O)NCC(N)=O (Ac-Phe-Ile-Gly-NH2)
14,0.43,CC(=O)N[C@@H](Cc1ccccc1)C(=O)N[C@H](C(N)=O)C(C)C (Ac-Phe-Val-NH2)
15,-1.14,CC(=O)NC(CC(N)=O)C(=O)NC(Cc1ccccc1)C(N)=O (stereo not drawn) (Ac-Asn-Phe-NH2; configuration not given here)
16,-0.71,CC(=O)N[C@@H](C)C(=O)NCC(=O)N[C@@H](Cc1ccccc1)C(N)=O (Ac-Ala-Gly-Phe-NH2)

# Second part, the compound before the results:
row,SMILES,logD
1,CC(=O)N[C@@H](Cc1c[nH]c2ccccc12)C(=O)N[C@H](C(N)=O)C(C)C (Ac-Trp-Val-NH2),0.73
2,CC(=O)N[C@@H](C)C(=O)N[C@@H](Cc1ccc(O)cc1)C(=O)N[C@@H](CC(C)C)C(N)=O (Ac-Ala-Tyr-Leu-NH2),-0.04
3,CC(=O)N[C@@H](Cc1c[nH]c2ccccc12)C(=O)N[C@@H](C)C(=O)N[C@H](C(N)=O)C(C)C (Ac-Trp-Ala-Val-NH2),0.36
4,CC(=O)N[C@@H](Cc1ccc(O)cc1)C(=O)N[C@H](C(N)=O)C(C)C,-0.2
5,CC(=O)N[C@@H](Cc1ccc(O)cc1)C(=O)N[C@@H](CC(C)C)C(N)=O (Ac-Tyr-Leu-NH2),0.32
6,CC(=O)N[C@@H](Cc1c[nH]c2ccccc12)C(=O)N[C@@H](C)C(=O)N[C@@H](C)C(N)=O (Ac-Trp-Ala-Ala-NH2),-0.31
7,CC[C@H](C)[C@H](NC(=O)[C@H](Cc1c[nH]c2ccccc12)NC(C)=O)C(=O)NCC(N)=O (Ac-Trp-Ile-Gly-NH2),0.62
